Key:
TTR [1] = test: TTR editing in HEK293_Cas9 cells transfected with dgRNAs (Table 4); format: cell-based, human; conditions: HEK293_Cas9 cells (constitutively express Spy Cas9) transfected with dgRNAs
In short: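 Percent editing, taken from amplicon NGS as the fraction of all reads carrying insertions, deletions or substitutions, was measured 24, 48 or 72 h after delivery. Delivery used RNAiMAX lipoplexes of 25 nM each crRNA and trRNA into HEK293 cells stably expressing Spy Cas9.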

TTR [2] = test: TTR editing in primary human hepatocytes electroporated with Spy Cas9 protein loaded with dgRNAs (Table 7); format: cell-based; conditions: dgRNA electroporated with Spy Cas9 protein (RNP)
In short: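 Editing efficiency is the fraction of NGS reads carrying insertions, deletions or substitutions at the TTR target, measured on MiSeq amplicons from DNA harvested 24, 48 or 72 h post-delivery. Cas9–dgRNA ribonucleoprotein was nucleofected (P3 buffer, EX-147) into primary human or cyno hepatocytes.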

TTR [3] = test: TTR editing in primary human hepatocytes transfected with Spy Cas9 protein (RNP) loaded with dgRNAs (Table 8); format: cell-based; conditions: dgRNA transfected with Spy Cas9 protein (RNP)
In short: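 Primary human hepatocytes were lipofected (RNAiMAX) with RNP of Spy Cas9 (10 nM) plus pre-annealed crRNA (10 nM) and trRNA (10 nM) and harvested 24, 48 or 72 h later. Target-site amplicons were sequenced on Illumina MiSeq and aligned to hg38; percent editing = reads with indels or substitutions over total reads.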

TTR [4] = test: TTR editing in primary human hepatocytes transfected with Spy Cas9 mRNA and dgRNAs (Table 9); format: cell-based; conditions: dgRNA co-transfected with Spy Cas9 mRNA (SEQ ID NO:2)
In short: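 PHH sequentially lipofected with Spy Cas9 mRNA (100 ng), then crRNA plus tracrRNA (25 nM each) dual-guide lipoplex. Cells harvested 24, 48 or 72 h post-transfection; TTR target amplicons sequenced on Illumina MiSeq, editing given as percent reads with indels or substitutions over total reads.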

Sequence	Avg % Deletion (TTR [1]) [%]	Avg % Edit (TTR [1]) [%]	Avg % Insert (TTR [1]) [%]	Avg % Deletion (TTR [2]) [%]	Avg % Edit (TTR [2]) [%]	Avg % Insert (TTR [2]) [%]	Avg % Deletion (TTR [3]) [%]	Avg % Edit (TTR [3]) [%]	Avg % Insert (TTR [3]) [%]	Avg % Deletion (TTR [4]) [%]	Avg % Edit (TTR [4]) [%]	Avg % Insert (TTR [4]) [%]
CCGUGGUGGAAUAGGAGUAG (tested as dual guide RNA, chemistry not given here) [CR003386]	30.18	33.12	2.94	0.47	4.90	4.47	0.25	3.22	2.97	0.13	8.27	8.20
GCCGUGGUGGAAUAGGAGUA (tested as dual guide RNA, chemistry not given here) [CR003387]	16.92	24.68	7.75	0.20	1.87	1.70	0.11	1.79	1.68	0.03	7.87	7.80
AUUGGUGACGACAGCCGUGG (tested as dual guide RNA, chemistry not given here) [CR003389]	23.87	34.18	10.30	0.50	27.67	27.20	0.68	19.87	19.19	2.83	44.27	41.47
AUACCAGUCCAGCAAGGCAG (tested as dual guide RNA, chemistry not given here) [CR003338]	47.66	52.42	4.76	2.13	83.03	80.87	2.22	61.34	59.13	2.73	36.30	33.73
AGUCCCUCAUUCCUUGGGAU (tested as dual guide RNA, chemistry not given here) [CR003392]	20.82	21.67	0.85	0.17	4.13	4.00	0.14	10.07	9.93	0.07	2.43	2.37
CCUCCUCUGCCUUGCUGGAC (tested as dual guide RNA, chemistry not given here) [CR003336]	25.78	29.09	3.31	0.70	39.17	38.43	0.58	30.70	30.11	0.80	16.93	16.20
AAGUGCCUUCCAGUAAGAUU (tested as dual guide RNA, chemistry not given here) [CR003368]	36.61	40.35	3.73	0.80	28.47	27.63	1.00	34.83	33.83	0.60	11.10	10.53
GUGAGUCUGGAGAGCUGCAU (tested as dual guide RNA, chemistry not given here) [CR003360]	19.98	22.68	2.70	0.63	32.23	31.67	1.19	31.47	30.27	0.90	14.90	14.13
CCCAGAGGCAAAUGGCUCCC (tested as dual guide RNA, chemistry not given here) [CR003355]	23.61	30.60	6.99	1.97	12.53	10.60	1.42	19.11	17.69	1.63	12.07	10.47

Source: US11795460B2, “Compositions and methods for TTR gene editing and treating ATTR amyloidosis” (Intellia Therapeutics, Inc., priority 2017, dated 2023)
